Measured values reported in patent publication US5137811A, “Method for diagnosing periodontal diseases with a substrate specific for aminopeptidase activity of periodontopathic bacteria” (Sunstar Kabushiki Kaisha, priority 1986, dated 1992).
*1 amine or outer side, *2 acyl side, *3 side chain or, on linkers, in order; H or OH if unused. Where a SMILES comes first, the peptide text is derived from it. The star is where a group is joined. Suc = O=C(CCC(=O)[*:2])[*:1]; βNA = c1ccc2cc(N*)ccc2c1; Cbz = O=C(OCc1ccccc1)*; Bz = O=C(c1ccccc1)*

Key:
Assay in all cases: Hydrolytic activity of cell suspension on aminopeptidase substrates (Experiment 2)
Assay type in all cases: cell-based
Treponema denticola = conditions: four strains, Table 2
Procedure: (§1) The strains of Treponema were anaerobically cultivated using TYGVS media at 37° C. for 7 days, while other bacterial strains were cultivated using brain heart infusion broth at 37° C. for 48 to 72 hours. Each culture was diluted to obtain a bacterial cell suspension, the absorption at 660 nm of which was 1.0.
(§2) Substrate compounds for aminopeptidase enzyme having various color developing groups derived from β-naphthylamine were dissolved in 0.1M Tris-HCl buffer (pH 7.0) at the concentration of 0.2 mM to obtain substrate solutions.
(§3) To the substrate solution (1.5 ml) was added the above cell suspension (0.3 ml) and reacted at 37° C. for 60 minutes. After completion of the reaction, a coloring reagent [prepared by dissolving diazonium salt of Garnet GBC in 1M acetate buffer (containing 10% Tween 20, pH: 4.2) at the concentration of 0.5 mg/ml] was added and, after 15 minutes, the absorption at 525 nm was determined with a spectrophotometer.
(§4) On the basis of the average amount of released β-naphthylamine in each strain, the hydrolytic activity was expressed as follows: […]
(§5) According to the same manner as described in Experiment 1, periodontopathic bacteria specific aminopeptidase activity was tested by using four strains of Treponema denticola, five strains of B. gingivalis, three strains of B. intermedius, two strains of B. melaninogenicus, two strains of Actinomyces israelli, four strains of Actinobacillus actinomycetemcomitans and three strains of Fusobacterium nucleatum. Abbreviations used in Table 2 mean the following substrate compounds.

Fusobacterium nucleatum = conditions: three strains, Table 2
Procedure: as §1, §2, §3, §4, §5

Actinomyces israelli = conditions: two strains, Table 2
Procedure: as §1, §2, §3, §4, §5

B. denticola = conditions: Table 2
Procedure: as §1, §2, §3, §4, §5

B. melaninogenicus = conditions: two strains, Table 2
Procedure: as §1, §2, §3, §4, §5

[1] = test system: Actinobacillus actinomycetemcomitans; conditions: four strains, Table 2
Procedure: as §1, §2, §3, §4, §5

B. gingivalis = conditions: five strains, Table 2
Procedure: as §1, §2, §3, §4, §5

B. corporis = conditions: Table 2
Procedure: as §1, §2, §3, §4, §5

B. intermedius = conditions: three strains, Table 2
Procedure: as §1, §2, §3, §4, §5

Row | SMILES | hydrolytic activity (average amount of released β-naphthylamine) (Treponema denticola) | hydrolytic activity (average amount of released β-naphthylamine) (Fusobacterium nucleatum) | hydrolytic activity (average amount of released β-naphthylamine) (Actinomyces israelli) | hydrolytic activity (average amount of released β-naphthylamine) (B. denticola) | hydrolytic activity (average amount of released β-naphthylamine) (B. melaninogenicus) | hydrolytic activity (average amount of released β-naphthylamine) [1] | hydrolytic activity (average amount of released β-naphthylamine) (B. gingivalis) | hydrolytic activity (average amount of released β-naphthylamine) (B. corporis) | hydrolytic activity (average amount of released β-naphthylamine) (B. intermedius)
1 | O=C(Nc1ccc2ccccc2c1)[C@@H]1CCCN1 [P, proline-β-naphthylamide, reference compound] | + (10 ≤release amount<20 nmol/ml) | - (release amount<5 nmol/ml) | - (release amount<5 nmol/ml) | - (release amount<5 nmol/ml) | - (release amount<5 nmol/ml) | - (release amount<5 nmol/ml) | - (release amount<5 nmol/ml) | - (release amount<5 nmol/ml) | - (release amount<5 nmol/ml)
2 | N[C@@H](CO)C(=O)N[C@@H](Cc1ccc(O)cc1)C(=O)Nc1ccc2ccccc2c1 [SY, seryl-tyrosine-β-naphthylamide, reference compound] (H-Ser-Tyr-βNA) | - (release amount<5 nmol/ml) | - (release amount<5 nmol/ml) | - (release amount<5 nmol/ml) | ± (5 ≤release amount<10 nmol/ml) | ± (5 ≤release amount<10 nmol/ml) | - (release amount<5 nmol/ml) | ++ (20 ≤release amount<40 nmol/ml) | ± (5 ≤release amount<10 nmol/ml) | - (release amount<5 nmol/ml)
3 | CC(C)[C@H](N)C(=O)N[C@@H](C)C(=O)Nc1ccc2ccccc2c1 [VA, valyl-alanine-β-naphthylamide, reference compound] (H-Val-Ala-βNA) | - (release amount<5 nmol/ml) | - (release amount<5 nmol/ml) | - (release amount<5 nmol/ml) | ± (5 ≤release amount<10 nmol/ml) | ± (5 ≤release amount<10 nmol/ml) | - (release amount<5 nmol/ml) | ++ (20 ≤release amount<40 nmol/ml) | ± (5 ≤release amount<10 nmol/ml) | - (release amount<5 nmol/ml)
4 | CC(C)C[C@H](N)C(=O)NCC(=O)Nc1ccc2ccccc2c1 [LG, leucyl-glycine-β-naphthylamide, reference compound] (H-Leu-Gly-βNA) | - (release amount<5 nmol/ml) | - (release amount<5 nmol/ml) | - (release amount<5 nmol/ml) | ++ (20 ≤release amount<40 nmol/ml) | +++ (release amount≥40 nmol/ml) | - (release amount<5 nmol/ml) | + (10 ≤release amount<20 nmol/ml) | ++ (20 ≤release amount<40 nmol/ml) | - (release amount<5 nmol/ml)
5 | CC(C)[C@H](NC(=O)OCc1ccccc1)C(=O)N[C@@H](CCCCN)C(=O)N1CCC[C@H]1C(=O)Nc1ccc2ccccc2c1 [CxVKP, N-carbobenzoxy-valyl-lysyl-proline-β-naphthylamide] (Cbz-Val-Lys-Pro-βNA) | ++ (20 ≤release amount<40 nmol/ml) | - (release amount<5 nmol/ml) | - (release amount<5 nmol/ml) | ++ (20 ≤release amount<40 nmol/ml) | ++ (20 ≤release amount<40 nmol/ml) | - (release amount<5 nmol/ml) | ++ (20 ≤release amount<40 nmol/ml) | ++ (20 ≤release amount<40 nmol/ml) | ++ (20 ≤release amount<40 nmol/ml)
6 | CC(C)C[C@H](NC(=O)[C@@H]1CCCN1C(=O)CNC(=O)CCC(=O)O)C(=O)NCC(=O)N1CCC[C@H]1C(=O)Nc1ccc2ccccc2c1 [ScGPLGP, N-succinyl-glycyl-prolyl-leucyl-glycyl-proline-β-naphthylamide] (Suc-GPLGP-βNA) | + (10 ≤release amount<20 nmol/ml) | - (release amount<5 nmol/ml) | - (release amount<5 nmol/ml) | ± (5 ≤release amount<10 nmol/ml) | ± (5 ≤release amount<10 nmol/ml) | - (release amount<5 nmol/ml) | ± (5 ≤release amount<10 nmol/ml) | ± (5 ≤release amount<10 nmol/ml) | + (10 ≤release amount<20 nmol/ml)
7 | O=C(CNC(=O)c1ccccc1)N[C@@H](Cc1ccccc1)C(=O)N1CCC[C@H]1C(=O)Nc1ccc2ccccc2c1 [BzGFP, N-benzoyl-glycyl-phenylalanyl-proline-β-naphthylamide] (Bz-Gly-Phe-Pro-βNA) | +++ (release amount≥40 nmol/ml) | - (release amount<5 nmol/ml) | - (release amount<5 nmol/ml) | ++ (20 ≤release amount<40 nmol/ml) | ++ (20 ≤release amount<40 nmol/ml) | - (release amount<5 nmol/ml) | ++ (20 ≤release amount<40 nmol/ml) | ++ (20 ≤release amount<40 nmol/ml) | +++ (release amount≥40 nmol/ml)
8 | N[C@@H](Cc1ccccc1)C(=O)N1CCC[C@H]1C(=O)Nc1ccc2ccccc2c1 [FP, phenylalanyl-proline-β-naphthylamide] (H-Phe-Pro-βNA) | ++ (20 ≤release amount<40 nmol/ml) | - (release amount<5 nmol/ml) | - (release amount<5 nmol/ml) | + (10 ≤release amount<20 nmol/ml) | + (10 ≤release amount<20 nmol/ml) | - (release amount<5 nmol/ml) | ++ (20 ≤release amount<40 nmol/ml) | + (10 ≤release amount<20 nmol/ml) | + (10 ≤release amount<20 nmol/ml)
9 | O=C(NCC(=O)N1CCC[C@H]1C(=O)Nc1ccc2ccccc2c1)c1ccccc1 [BzGP, N-benzoyl-glycyl-proline-β-naphthylamide] (Bz-Gly-Pro-βNA) | ++ (20 ≤release amount<40 nmol/ml) | - (release amount<5 nmol/ml) | - (release amount<5 nmol/ml) | ++ (20 ≤release amount<40 nmol/ml) | ++ (20 ≤release amount<40 nmol/ml) | - (release amount<5 nmol/ml) | ++ (20 ≤release amount<40 nmol/ml) | ++ (20 ≤release amount<40 nmol/ml) | +++ (release amount≥40 nmol/ml)
